The target of one series is T1, Flt-3 (Homo sapiens, UniProt P36888).
T1 construct: His tag; purchased Upstate Inc. 14-500
T1 sequence (P36888 564-993 limits assumed): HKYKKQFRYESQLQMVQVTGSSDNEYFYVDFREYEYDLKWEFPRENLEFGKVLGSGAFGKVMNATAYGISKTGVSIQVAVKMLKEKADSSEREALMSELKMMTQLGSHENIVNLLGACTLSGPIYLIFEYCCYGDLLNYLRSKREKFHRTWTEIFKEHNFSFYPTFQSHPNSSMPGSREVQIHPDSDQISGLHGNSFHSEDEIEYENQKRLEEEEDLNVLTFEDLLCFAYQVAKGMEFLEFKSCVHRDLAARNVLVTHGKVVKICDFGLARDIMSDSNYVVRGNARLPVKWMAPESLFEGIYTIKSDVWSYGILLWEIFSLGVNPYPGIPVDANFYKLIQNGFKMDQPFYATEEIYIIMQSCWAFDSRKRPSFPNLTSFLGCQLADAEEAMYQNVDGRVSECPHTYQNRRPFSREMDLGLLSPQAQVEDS
Put plainly: Flt-3 inhibitory activity, time-resolved fluoroimmunoassay. The format is biochemical. As to conditions: 10 μmol/L test compound. As for the experimental part:
Flt-3 inhibitory activity was determined by a method described below.
Biotinylated polyglutamic acid-tyrosine peptide (Nihon Schering K.K., Catalogue No. 61GT0BAA) used as a substrate was immobilized on a 96-well plate (FIA-PLATE BLACK 96 well FALT-BOTTOM HIGH BINDING, Greiner Bio-one Co., Ltd., Catalogue No. 655077) coated with NeutroAvidin (Pierce, Catalogue No. 31000) and was then blocked with 0.25% gelatin to yield a plate for the determination of kinase reaction. A solution containing, at final concentrations, 8 μg/L His-tagged protein-fused Flt-3 (Upstate Inc., Catalogue No. 14-500), 20 mmol/L Tris-Cl (pH 7.5), 0.04% 2-mercaptoethanol, 0.04 mmol/L Na3VO4, 20 mmol/L MgCl2, 5 mmol/L MnCl2, 10 μmol/L ATP, 0.1% BSA, 0.1% DMSO, and […] test compound was prepared. Subsequently, 50 μL of the solution was placed in each of the wells of the plate for the determination of kinase reaction, followed by enzymatic reaction at 24° C. for 60 minutes. The plate was washed with TBS-T [10 mmol/L Tris-Cl (pH 7.5), 150 mmol/L NaCl, and 0.05% Tween 20 (Bio-Rad Laboratories Inc., Catalogue No. 170-6531)] four times, and allowed to react with europium-labeled anti-phosphotyrosine antibody (PerkinElmer Inc. Catalogue No. AD0160) at room temperature for 60 minutes. The plate was further washed with TBS-T four times. Subsequently, time-resolved fluoroimmunoassay was performed (excitation wavelength: 340 nm, measuring wavelength: 615 nm). The relative activity (%) of a well to which the enzyme and the test compound were added was calculated using the value of a well to which the test compound was not added being 100% and the value of a well to which the enzyme and the test compound were not added being 0%. The Flt-3 inhibitory activity (%) of the test compound was determined by subtracting the relative activity (%) from 100.

In a further series the test system is Aurora. Put plainly: Aurora inhibitory activity using Western blotting method (phosphorylation of histone H3 Ser10). The format is cell-based, human. As to conditions: 10 μmol/L, 30 minutes, HCT116 cells accumulated in M phase with Nocodazole. The source says: It is known that Aurora phosphorylates Ser10 of histone H3 in the G2/M phase during the cell cycle [Molecular and Cellular Biology, Vol. 22, p. 874 (2002)]. Consequently, the inhibition of phosphorylation of histone H3 Ser10 in cells was detected by a Western blotting method using human colon cancer cell line HCT116 cells accumulated in the M phase. McCoy's 5A culture medium (GIBCO, Catalogue No. 16600-082) containing 10% bovine fetus serum (GIBCO, Catalogue No. 10099-141) was used for the cultivation of the cells. The HCT116 cells were inoculated and then treated with Nocodazole (Sigma Corporation, Catalogue No. M-1404) so that the cell cycle was accumulated to the M phase. A test compound (final concentration: 10 μmol/L) was added thereto, and the cells were incubated at 37° C. for 30 minutes. The cells were then recovered and washed with a phosphate buffered saline (PBS) once. The cells were suspended in a cell-solubilizing solution (50 mmol/L 2-[4-(2-hydroxyethyl)-1-piperazinyl]ethanesulfonic acid (HEPES) (pH 7.4), 150 mmol/L NaCl, 1 mmol/L ethylenediamine-N,N,N′,N′-tetraacetic acid disodium salt dihydrate (EDTA), 2.5 mmol/L ethylene glycol bis(2-aminoethylether)-N,N,N′,N′-tetraacetic acid (EGTA), 0.1% Tween-20 (Bio-Rad Laboratories Inc., Catalogue No. 170-6531), 10% β-glycerophosphate, 1 mmol/L NaF, 0.1 mmol/L Na3VO4, 1 mmol/L Pefabloc SC (Roche Diagnostics K.K., Catalogue No. 1 429 868), and Complete EDTA-free (Roche Diagnostics K.K., Catalogue No. 1 873 580)}, and the suspension was frozen and thawed. Subsequently, the supernatant obtained by centrifugal separation was used as a cell extraction solution. SDS-PAGE was performed using a 12.5% polyacrylamide gel under the condition that the amount of protein per sample was 30 μg in accordance with the method used by Laemmli et al. The protein was transferred onto a PVDF membrane (Millipore Corporation, Catalogue No. IPVH304F0) by a semi-dry method. The membrane was allowed to react with anti-phosphorylated histone H3 Ser10 antibody (Upstate Inc., Catalogue No. 06-570) used as a primary antibody, and an HRP-labeled anti-rabbit IgG antibody (Amersham biosciences, Catalogue No. NA934V) used as a secondary antibody. Subsequently, […] was detected using a SuperSignal West Pico chemiluminescence substrate (Pierce, Catalogue No. 34077).
On the technique in general: A western blot detects proteins with antibodies after separation by electrophoresis.

A further series relates to HCT116 cells. Put plainly: Evaluation of Aurora inhibitory activity by analysis of nuclear morphology (enlarged lobed nuclei). It is filed as cell-based, human. To be noted: concentration in the range of 0.1 to 1 μmol/L, 17 hours contact; optimal concentration different in each compound. As for the experimental part:
281 (2003)]. Consequently, enlarged lobed nuclei-inducibility of test compounds for HCT116 cells was evaluated. McCoy's 5A culture medium (GIBCO, Catalogue No. 16600-082) containing 10% bovine fetus serum (GIBCO, Catalogue No. 10099-141) was used for the cultivation of the cells. HCT116 cells were inoculated and, 24 hours later, each test compound was added thereto.

The target in another series is T2, human FGFR3 (Homo sapiens, UniProt P22607).
T2 construct: the intracellular domain (448-759 amino acids) of human FGFR3; made in house; host or cells: insect cells (baculovirus)
T2 sequence (P22607 448-759): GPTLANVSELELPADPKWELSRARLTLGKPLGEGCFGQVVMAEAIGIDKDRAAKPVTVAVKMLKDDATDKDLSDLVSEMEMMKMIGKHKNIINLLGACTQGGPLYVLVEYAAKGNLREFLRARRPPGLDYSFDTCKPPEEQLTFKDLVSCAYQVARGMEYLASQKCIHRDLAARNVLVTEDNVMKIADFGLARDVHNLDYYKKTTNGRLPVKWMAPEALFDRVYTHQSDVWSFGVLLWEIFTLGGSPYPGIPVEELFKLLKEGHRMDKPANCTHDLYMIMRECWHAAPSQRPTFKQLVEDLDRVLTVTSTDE
Put plainly: Fibroblast growth factor receptor 3 (FGFR3) inhibitory activity, time-resolved fluoroimmunoassay. It is filed as biochemical. To be noted: 10 μmol/L test compound. The procedure: In order to determine FGFR3 inhibitory activity, the following method was employed. FGFR3 was prepared by allowing baculovirus that expresses a protein in which glutathione S-transferase (GST) was fused to the N-terminal of the intracellular domain (448-759 amino acids) of human FGFR3 to infect insect cells. Biotinylated polyglutamic acid-tyrosine peptide (Nihon Schering K.K., Catalogue No. 61GT0BAA) used as a substrate was immobilized on a 96-well plate coated with NeutroAvidin (Pierce, Catalogue No. 31000) and was then blocked with 0.25% gelatin to yield a plate for the determination of kinase reaction A solution containing, at final concentrations, 8 μg/L GST-fused FGFR3 protein, 20 mmol/L Tris-Cl (pH 7.5), 0.04% 2-mercaptoethanol, 0.04 mmol/L Na3VO4, 20 mmol/L MgCl2, 5 mmol/L MnCl2, 10 mmol/L ATP, 0.1% bovine serum albumin (BSA; Sigma Corporation, Catalogue No. A4503), 0.1% dimethyl sulfoxide (DMSO), and 10 μmol/L test compound was prepared. Subsequently, 50 μL of the solution was placed in each of the wells of the plate for the determination of kinase reaction, followed by enzymatic reaction at 24° C. for 60 minutes. The plate was washed with TBS-T [10 mM Tris-Cl (pH 7.5), 150 mmol/L NaCl, and 0.05% Tween 20 (Bio-Rad Laboratories Inc., Catalogue No. 170-6531)] four times, and allowed to react with europium-labeled anti-phosphotyrosine antibody (PerkinElmer Inc. Catalogue No. AD0160) at room temperature for 60 minutes. The plate was further washed with TBS-T four times. Subsequently, DELFIA. Enhancement Solution (PerkinElmer Inc. Catalogue No. 1244-105) was added to the plate, and time-resolved fluoroimmunoassay was performed (excitation wavelength: 340 nm, measuring wavelength: 615 nm). The relative activity (%) of a well in which the test compound was added was calculated using the value of a well containing the enzyme and 0.1% DMSO being 100% and the value of a well not containing the enzyme being 0%. The FGFR3 inhibitory activity (%) of the test compound was determined by subtracting the relative activity (%) from 100.

The conditions of series [1]: several evaluation models; drugs reported to act on FGFR; cited from earlier work.
The next series relates to leukemia-transplant mice. To be noted: drugs that act on Flt-3; cited from earlier work.

We go through 14 molecules from US7745641B2, “Nitrogen-containing heterocyclic compound” (Kyowa Hakko Kirin Co., Ltd., priority 2005, dated 2010).

As usually defined, the inhibition is the relative decrease from the control value, in per cent. Low values mean little suppression, high ones strong suppression. As usually defined, the melting point is the temperature of the solid-liquid transition.

For the molecule `COc1cc(-c2cc3cc(CN4CCCC4)ccc3[nH]2)c2c(c1OS(C)(=O)=O)CNC2=O` [Compound 366, 4-Methanesulfonyloxy-5-methoxy-7-[1H-5-(pyrrolidin-1-ylmethyl)indol-2-yl]isoindolinone], the melting point lay within 187 to 189 °C. The inhibition at 10 µM at Flt-3 was not below 50%. The “suppression of the phosphorylation of histone H3 Ser10 in HCT116 cells” value (from here on “suppression”) in the series on Aurora is given as “almost completely suppressed”. Also, in the series on HCT116 cells, the “ability of inducing enlarged lobed nuclei for HCT116 cells” value (from here on “ability”) was “show ability of inducing enlarged lobed nuclei”. The same molecule registered an inhibition at 10 µM at human FGFR3 not below 50%.
For the molecule `CO[C@@H]1[C@H](N(C)C(=O)c2ccccc2)C[C@H]2O[C@]1(C)n1c3ccccc3c3c4c(c5c6ccccc6n2c5c31)C(=O)NC4` [PKC412], the antitumor activity result (in series [1]; in the series on leukemia-transplant mice) was “exhibit an antitumor activity” in each case.
In the case of `COc1cc(-c2cc3cc(CN(C)C)ccc3[nH]2)c2c(c1OS(C)(=O)=O)CNC2=O` [Compound 362, 4-Methanesulfonyloxy-5-methoxy-7-[1H-5-(dimethylaminomethyl)indol-2-yl]isoindolinone], the melting point was 232 to 234 °C. Further, the inhibition at 10 µM at Flt-3 was not below 50%. Besides, in the series on Aurora, the “suppression” value is “almost completely suppressed”. Moreover, in the series with HCT116 cells, the “ability” value was “show ability of inducing enlarged lobed nuclei”. The molecule further displayed an inhibition at 10 µM against human FGFR3 not below 50%.
Regarding `CCN(CC)CCNC(=O)c1c(C)[nH]c(/C=C2\C(=O)Nc3ccc(F)cc32)c1C` [SU11248], the antitumor activity entry with leukemia-transplant mice was “exhibit an antitumor activity”.
Turning to `COc1cc2c(N3CCN(C(=O)Nc4ccc(OC(C)C)cc4)CC3)ncnc2cc1OCCCN1CCCCC1` [CT53518], the antitumor activity entry in the series on leukemia-transplant mice was “exhibit an antitumor activity”.
For the molecule `CCN(CC)CCCCNc1ncc2cc(-c3cc(OC)cc(OC)c3)c(NC(=O)NC(C)(C)C)nc2n1` [PD173074], in series [1], the antitumor activity entry was “exhibit an antitumor activity”.
`O=C(NCc1ccccc1)c1ccc2[nH]c(-c3ccc(Cl)c4c3C(=O)NC4)cc2c1` [Compound 57, 4-Chloro-7-[1H-5-(benzylaminocarbonyl)indol-2-yl]isoindolinone] had a melting point of 246 °C.
Turning to `CN1CCN(c2ccc3nc(-c4c(N)c5c(F)cccc5[nH]c4=O)[nH]c3c2)CC1` [CHIR-258], the antitumor activity result (in series [1]; in the series on leukemia-transplant mice) was “exhibit an antitumor activity” each time.
In the case of `COCCNCc1ccc2[nH]c(-c3cc(OC)c(OS(C)(=O)=O)c4c3C(=O)NC4)cc2c1` [Compound 374, 4-Methanesulfonyloxy-5-methoxy-7-[1H-5-(2-methoxyethylaminomethyl)indol-2-yl]isoindolinone], the melting point was 188 to 190 °C. At Flt-3, this molecule displayed an inhibition at 10 µM not below 50%. Besides, in the series with Aurora, the “suppression” value was “almost completely suppressed”. For the same molecule, the “ability” value in the series with HCT116 cells is reported as “show ability of inducing enlarged lobed nuclei”. Further, the inhibition at 10 µM at human FGFR3 was not below 50%.
In the case of `C[C@]12O[C@H](C[C@]1(O)CO)n1c3ccccc3c3c4c(c5c6ccccc6n2c5c31)CNC4=O` [CEP-701], the antitumor activity result in the series on leukemia-transplant mice was “exhibit an antitumor activity”.
With BIBF1000, in series [1], the antitumor activity result is “exhibit an antitumor activity”.
For `CN(C)CCN1CCN(C(=O)c2ccc3[nH]c(-c4ccc(Cl)c5c4C(=O)NC5)cc3c2)CC1` [Compound 112, 4-Chloro-7-{1H-5-[4-(2-dimethylaminoethyl)piperazin-1-ylcarbonyl]indol-2-yl}isoindolinone], the melting point is 271 to 272 °C.
As for `Cc1c[nH]c(/C=C2\C(=O)Nc3ccccc32)c1CCC(=O)O` [SU5402], in series [1], the antitumor activity entry was “exhibit an antitumor activity”.
In the case of `O=C1NCc2c(Cl)ccc(-c3cc4cc(C(=O)N5CCN(c6ccccn6)CC5)ccc4[nH]3)c21` [Compound 107, 4-Chloro-7-{1H-5-[4-(pyridin-2-yl)piperazin-1-ylcarbonyl]indol-2-yl}isoindolinone], the melting point was more than 295 °C.
